From patent publication US9951038B2, “Quinazolin-4(3H)-one-type piperidine compounds and uses thereof” (Purdue Pharma L.P., priority 2012, dated 2018)

How the values were obtained:
[1] = molecular target: T1, CYP2D6 (Homo sapiens, UniProt P10635); assay: Cytochrome P450 inhibition, pooled human hepatic microsome, CYP2D6 (dextromethorphan O-demethylation); assay type: in vitro ADME; conditions: 5 μmol/L dextromethorphan, 15 min, 37° C.
T1 construct: using commercially available pooled human hepatic microsome; from tissue; host or cells: pooled human hepatic microsomes
T1 sequence (P10635 whole entry): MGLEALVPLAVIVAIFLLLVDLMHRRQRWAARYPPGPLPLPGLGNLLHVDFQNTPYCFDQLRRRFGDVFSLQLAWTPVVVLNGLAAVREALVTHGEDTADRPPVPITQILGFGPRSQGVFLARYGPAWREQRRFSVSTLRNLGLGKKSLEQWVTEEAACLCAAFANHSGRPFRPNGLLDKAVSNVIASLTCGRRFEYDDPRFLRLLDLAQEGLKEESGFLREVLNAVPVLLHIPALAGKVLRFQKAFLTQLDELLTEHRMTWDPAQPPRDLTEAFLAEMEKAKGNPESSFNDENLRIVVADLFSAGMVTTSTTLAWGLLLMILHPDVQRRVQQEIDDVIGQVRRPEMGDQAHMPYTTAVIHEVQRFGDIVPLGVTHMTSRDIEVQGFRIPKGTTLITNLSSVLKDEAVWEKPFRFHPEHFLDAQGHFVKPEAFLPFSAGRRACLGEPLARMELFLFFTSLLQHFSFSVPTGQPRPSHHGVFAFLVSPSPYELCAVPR

[2] = molecular target: T2, CYP3A4 (Homo sapiens, UniProt P08684); assay: Cytochrome P450 inhibition, pooled human hepatic microsome, CYP3A4; assay type: in vitro ADME
T2 construct: using commercially available pooled human hepatic microsome; from tissue; host or cells: pooled human hepatic microsomes
T2 sequence (P08684 whole entry): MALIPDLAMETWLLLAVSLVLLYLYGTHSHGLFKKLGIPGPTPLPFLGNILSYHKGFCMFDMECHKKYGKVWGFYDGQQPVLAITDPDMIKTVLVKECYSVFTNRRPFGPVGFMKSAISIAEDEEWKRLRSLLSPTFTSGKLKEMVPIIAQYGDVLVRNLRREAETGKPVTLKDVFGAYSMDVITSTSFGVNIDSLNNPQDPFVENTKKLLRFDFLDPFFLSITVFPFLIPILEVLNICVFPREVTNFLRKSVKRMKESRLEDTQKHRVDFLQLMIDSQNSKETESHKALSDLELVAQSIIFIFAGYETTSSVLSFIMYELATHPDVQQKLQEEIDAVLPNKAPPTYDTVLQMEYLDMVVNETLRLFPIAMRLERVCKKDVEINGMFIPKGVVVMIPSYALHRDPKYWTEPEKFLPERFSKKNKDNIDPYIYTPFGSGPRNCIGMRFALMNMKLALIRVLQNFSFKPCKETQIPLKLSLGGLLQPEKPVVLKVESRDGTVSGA

[3] = molecular target: human opioid receptor-like (ORL-1) (Homo sapiens, UniProt P41146); assay: In vitro ORL-1 receptor [35S]GTPγS functional assay; assay type: biochemical; conditions: for Emax: read-out: ORL-1 GTPγS Emax
human opioid receptor-like (ORL-1), sequence (P41146 whole entry): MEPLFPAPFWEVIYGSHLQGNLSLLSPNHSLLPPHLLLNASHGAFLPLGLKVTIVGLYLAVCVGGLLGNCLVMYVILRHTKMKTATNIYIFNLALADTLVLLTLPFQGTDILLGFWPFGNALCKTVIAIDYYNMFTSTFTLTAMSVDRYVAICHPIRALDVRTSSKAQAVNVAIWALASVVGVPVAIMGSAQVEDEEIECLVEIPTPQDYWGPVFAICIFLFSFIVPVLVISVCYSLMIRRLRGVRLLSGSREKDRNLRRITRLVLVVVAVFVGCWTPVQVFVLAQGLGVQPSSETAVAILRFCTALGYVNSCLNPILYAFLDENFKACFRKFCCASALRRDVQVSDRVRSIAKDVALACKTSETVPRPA

[4] = molecular target: T3, CYP2C9 (Homo sapiens, UniProt P11712); assay: Cytochrome P450 inhibition, pooled human hepatic microsome, CYP2C9; assay type: in vitro ADME
T3 construct: using commercially available pooled human hepatic microsome; from tissue; host or cells: pooled human hepatic microsomes
T3 sequence (P11712 whole entry): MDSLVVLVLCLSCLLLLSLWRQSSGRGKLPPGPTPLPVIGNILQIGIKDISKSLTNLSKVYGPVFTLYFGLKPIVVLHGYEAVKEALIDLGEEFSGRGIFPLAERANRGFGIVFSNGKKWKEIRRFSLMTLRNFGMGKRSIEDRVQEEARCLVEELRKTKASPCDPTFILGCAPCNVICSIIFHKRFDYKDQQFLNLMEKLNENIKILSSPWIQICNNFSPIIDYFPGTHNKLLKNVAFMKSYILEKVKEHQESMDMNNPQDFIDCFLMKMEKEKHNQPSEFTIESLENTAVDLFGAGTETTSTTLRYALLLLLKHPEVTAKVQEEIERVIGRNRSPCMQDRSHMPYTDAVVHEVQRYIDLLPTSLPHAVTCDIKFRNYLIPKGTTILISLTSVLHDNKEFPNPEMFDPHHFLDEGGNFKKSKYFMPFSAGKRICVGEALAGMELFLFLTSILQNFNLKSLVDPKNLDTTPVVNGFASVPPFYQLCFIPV

[5] = molecular target: T4, CYP1A2 (Homo sapiens, UniProt P05177); assay: Cytochrome P450 inhibition, pooled human hepatic microsome, CYP1A2; assay type: in vitro ADME
T4 sequence (P05177 1-516): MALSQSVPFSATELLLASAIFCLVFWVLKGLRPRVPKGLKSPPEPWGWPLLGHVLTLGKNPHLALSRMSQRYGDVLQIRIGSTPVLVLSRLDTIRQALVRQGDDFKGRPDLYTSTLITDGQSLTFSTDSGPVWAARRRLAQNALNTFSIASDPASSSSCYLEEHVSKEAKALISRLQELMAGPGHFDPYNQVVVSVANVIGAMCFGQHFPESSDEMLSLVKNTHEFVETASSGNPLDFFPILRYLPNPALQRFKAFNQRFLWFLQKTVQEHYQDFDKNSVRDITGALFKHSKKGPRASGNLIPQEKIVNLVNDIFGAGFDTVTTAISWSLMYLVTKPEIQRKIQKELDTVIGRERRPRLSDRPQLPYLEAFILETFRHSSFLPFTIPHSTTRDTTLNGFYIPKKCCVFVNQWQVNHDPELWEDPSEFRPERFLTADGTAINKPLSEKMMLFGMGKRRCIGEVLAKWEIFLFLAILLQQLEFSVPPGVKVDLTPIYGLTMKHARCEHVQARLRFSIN

[6] = molecular target: Nociceptin receptor (Homo sapiens, UniProt P41146); assay: biochemical
Nociceptin receptor, sequence (P41146 whole entry, looked up): as the sequence (P41146 whole entry) above

Row | Compound | IC50 [1] [µM] | IC50 [2] [µM] | EC50 [3] [µM] | Emax [3] [%] | IC50 [4] [µM] | IC50 [5] [µM] | Ki [6] [µM]
1 | O=C(O)c1nc2ccccc2c(=O)n1C1C[C@H]2CCC[C@@H](C1)N2C1C[C@H]2CCC[C@@H](C1)C2 (stereo partly drawn) [9 (D2b), 3-((1R,1′R,3R,3′R,5S,5′S)-[3,9′-bi(9′-azabicyclo[3.3.1]nonan)]-3′-yl)-4-oxo-3,4-dihydroquinazoline-2-carboxylic acid] | 2.6 | > 20 | > 20 | 1 | > 20 | > 20 | –
2 | O=C(O)Cn1c(=O)n(C2C[C@H]3CCC[C@@H](C2)N3C2C[C@H]3CCC[C@@H](C2)C3)c(=O)c2ccccc21 (stereo partly drawn) [15 (D3a), 2-(3-((1R,1′R,3r,3′R,5S,5′S)-[3,9′-bi(9′-azabicyclo[3.3.1]nonan)]-3′-yl)-2,4-dioxo-3,4-dihydroquinazolin-1(2H)-yl)acetic acid] | > 20 | > 20 | > 20 | – | > 20 | > 20 | –
3 | O=c1[nH]c2ccccc2c(=O)n1C1C[C@H]2CCC[C@@H](C1)N2C1C[C@H]2CCC[C@@H](C1)C2 (stereo partly drawn) [12 (D1a)] | 8.9 | > 20 | > 20 | 1.33 ± 0.33 | > 20 | > 20 | –
4 | CCOC(=O)c1nc2ccccc2c(=O)n1C1C[C@H]2CCC[C@@H](C1)N2C1C[C@H]2CCC[C@@H](C1)C2 (stereo partly drawn) [8 (D12b), ethyl 3-((1R,1′R,3R,3′R,5S,5′S)-9′-aza[3,9′-bi(bicyclo[3.3.1]nonan)]-3′-yl)-4-oxo-3,4-dihydroquinazoline-2-carboxylate] | 9.7 | 6.5 | – | – | > 20 | > 20 | 0.252
5 | CCC1C[C@@H]2CC(N3[C@@H]4CCC[C@H]3CC(n3c(=O)c5ccccc5n(CC(=O)O)c3=O)C4)C[C@H](C1)C2 (stereo partly drawn) [24 (D459a), 2-(3-((1R,1′R,3r,3′R,5S,5′S)-7-ethyl-[3,9′-bi(9′-azabicyclo[3.3.1]nonan)]-3′-yl)-2,4-dioxo-3,4-dihydroquinazolin-1(2H)-yl)acetic acid] | 18.7 | 5.8 | > 20 | – | > 20 | > 20 | 0.229
6 | O=C(O)CNC(=O)Cn1c(=O)n(C2C[C@H]3CCC[C@@H](C2)N3C2C[C@H]3CCC[C@@H](C2)C3)c(=O)c2ccccc21 (stereo partly drawn) [18 (D28a), 2-(2-(3-((1R,1′R,3r,3′R,5S,5′S)-[3,9′-bi(9′-azabicyclo[3.3.1]nonan)]-3′-yl)-2,4-dioxo-3,4-dihydroquinazolin-1(2H)-yl)acetamido)acetic acid] | 1.6 | > 20 | > 20 | 1 | > 20 | > 20 | –
7 | O=C(O)Cn1c(=O)n(C2C[C@H]3CCC[C@@H](C2)N3C2C[C@H]3CCCC[C@@H](C2)C3)c(=O)c2ccccc21 (stereo partly drawn) [21 (J3a), 2-(3-((1R,3R,5S)-9-((1R,6S,8r)-bicyclo[4.3.1]decan-8-yl)-9-azabicyclo[3.3.1]nonan-3-yl)-2,4-dioxo-3,4-dihydroquinazolin-1(2H)-yl)acetic acid] | > 20 | 2.3 | > 20 | – | > 20 | 5.5 | –
